In the NIST ThermoML archive (doi:10.1021/acs.jced.8b00948):
± gives the expanded uncertainty stated by the source.

Assay: xn = mol fraction of the nth substance listed
Conditions: for surface tension liquid-gas: Pendant drop shape; for viscosity: 101 kPa, Liquid, Concentric cylinders viscometry

COS(=O)(=O)[O-].Cn1cc[n+](C)c1 [1,3-dimethylimidazolium methylsulfate] + CCCCCO
Conditions	surface tension liquid-gas, 298.15 K [mN/m]	surface tension liquid-gas, 303.15 K [mN/m]	surface tension liquid-gas, 308.15 K [mN/m]	surface tension liquid-gas, 313.15 K [mN/m]	viscosity, 298.15 K [mPa·s]	viscosity, 303.15 K [mPa·s]	viscosity, 308.15 K [mPa·s]	viscosity, 313.15 K [mPa·s]
x1 = 0.1	28 ± 0.6	27.6 ± 0.6	27.2 ± 0.6	26.9 ± 0.6	9.23 ± 0.57	7.19 ± 0.44	6.2 ± 0.38	5.25 ± 0.32
x1 = 0.35	36.2 ± 0.8	35.9 ± 0.8	35.6 ± 0.8	35.3 ± 0.8	24.7 ± 1.5	19.4 ± 1.2	15.7 ± 0.9	12.7 ± 0.8
x1 = 0.54	42.6 ± 0.9	42.3 ± 0.9	42 ± 0.9	41.7 ± 0.9	38.2 ± 2.3	29.9 ± 1.8	24.1 ± 1.5	19.8 ± 1.2
x1 = 0.661	46.7 ± 1	46.4 ± 1	46.1 ± 1	45.8 ± 1	47.7 ± 2.9	37.3 ± 2.2	30 ± 1.8	24.7 ± 1.5
x1 = 0.79	51.1 ± 1.1	50.8 ± 1.1	50.5 ± 1.1	50.3 ± 1.1	58.9 ± 3.5	46.5 ± 2.8	37.5 ± 2.3	30.8 ± 1.9
x1 = 0.931	56.1 ± 1.2	55.8 ± 1.2	55.5 ± 1.2	55.2 ± 1.2	71.8 ± 4.3	57.1 ± 3.4	46 ± 2.8	37.8 ± 2.3
x1 = 1	58.5 ± 1.3	58.2 ± 1.3	57.9 ± 1.3	57.6 ± 1.3	78 ± 4.7	61.9 ± 3.7	49.9 ± 3	40.9 ± 2.5

COS(=O)(=O)[O-].Cn1cc[n+](C)c1 [1,3-dimethylimidazolium methylsulfate] + CCCCO
Conditions	surface tension liquid-gas, 298.15 K [mN/m]	surface tension liquid-gas, 303.15 K [mN/m]	surface tension liquid-gas, 308.15 K [mN/m]	surface tension liquid-gas, 313.15 K [mN/m]	viscosity, 298.15 K [mPa·s]	viscosity, 303.15 K [mPa·s]	viscosity, 308.15 K [mPa·s]	viscosity, 313.15 K [mPa·s]
x1 = 0.063	26 ± 0.6	25.6 ± 0.6	25.2 ± 0.6	24.8 ± 0.6	5.34 ± 0.34	4.58 ± 0.29	3.86 ± 0.24	3.2 ± 0.2
x1 = 0.221	31.2 ± 0.7	30.9 ± 0.7	30.6 ± 0.7	30.2 ± 0.7	13.5 ± 0.8	10.5 ± 0.6	8.53 ± 0.52	7.18 ± 0.44
x1 = 0.432	38.3 ± 0.8	38.1 ± 0.8	37.8 ± 0.8	37.5 ± 0.8	26.3 ± 1.6	20.2 ± 1.2	16.1 ± 1	13.6 ± 0.8
x1 = 0.64	45.5 ± 1	45.3 ± 1	45 ± 1	44.7 ± 1	41.4 ± 2.5	32.6 ± 2	26.1 ± 1.6	21.9 ± 1.3
x1 = 0.781	50.5 ± 1.1	50.3 ± 1.1	50 ± 1.1	49.7 ± 1.1	54 ± 3.3	43.3 ± 2.6	34.8 ± 2.1	29 ± 1.8
x1 = 0.927	55.8 ± 1.2	55.5 ± 1.2	55.2 ± 1.2	55 ± 1.2	69.7 ± 4.2	55.5 ± 3.3	45 ± 2.7	37 ± 2.2
x1 = 1	58.5 ± 1.3	58.2 ± 1.3	57.9 ± 1.3	57.6 ± 1.3	78 ± 4.7	61.9 ± 3.7	49.9 ± 3	40.9 ± 2.5

COS(=O)(=O)[O-].Cn1cc[n+](C)c1 [1,3-dimethylimidazolium methylsulfate] + CCCO
Conditions	surface tension liquid-gas, 298.15 K [mN/m]	surface tension liquid-gas, 303.15 K [mN/m]	surface tension liquid-gas, 308.15 K [mN/m]	surface tension liquid-gas, 313.15 K [mN/m]	viscosity, 298.15 K [mPa·s]	viscosity, 303.15 K [mPa·s]	viscosity, 308.15 K [mPa·s]	viscosity, 313.15 K [mPa·s]
x1 = 0.039	24.5 ± 0.6	24 ± 0.5	23.6 ± 0.5	23.2 ± 0.5	3.15 ± 0.2	2.97 ± 0.19	2.53 ± 0.16	2.2 ± 0.14
x1 = 0.208	30.1 ± 0.7	29.8 ± 0.7	29.4 ± 0.7	29.1 ± 0.7	10.7 ± 0.7	8.55 ± 0.52	6.76 ± 0.41	6.05 ± 0.37
x1 = 0.382	36.1 ± 0.8	35.8 ± 0.8	35.5 ± 0.8	35.2 ± 0.8	19.6 ± 1.2	15.4 ± 0.9	12.2 ± 0.7	10.5 ± 0.6
x1 = 0.561	42.3 ± 0.9	42.1 ± 0.9	41.8 ± 0.9	41.6 ± 0.9	31.3 ± 1.9	25.1 ± 1.5	20.1 ± 1.2	16.8 ± 1
x1 = 0.702	47.4 ± 1.1	47.2 ± 1	46.9 ± 1	46.6 ± 1	42.5 ± 2.6	34.7 ± 2.1	28.1 ± 1.7	23.2 ± 1.4
x1 = 0.912	55.1 ± 1.2	54.9 ± 1.2	54.6 ± 1.2	54.3 ± 1.2	65.2 ± 3.9	52.9 ± 3.2	42.7 ± 2.6	35.3 ± 2.1
x1 = 1	58.5 ± 1.3	58.2 ± 1.3	57.9 ± 1.3	57.6 ± 1.3	78 ± 4.7	61.9 ± 3.7	49.9 ± 3	40.9 ± 2.5
